Test results as given in patent US20060004010A1, “Ccr4 antagonist and medical use thereof” (priority 2002, published 2006).
Each block holds one compound with its values, some of them ahead of it.

Experiments:
human CCR4 = biological target: T1, human CCR4 (Homo sapiens, UniProt P51679); assay: Inhibition of MDC-induced transient Ca ion increase in CCR4/CHO cells; type: cell-based; conditions: human CCR4 stably overexpressing CHO cell; recombinant human MDC 10 nM; read-out: IC50 value, inhibition of Ca2+ transient increase by MDC
T1 construct: expressed in transfected cells; host or cells: CHO-dhfr(-)
T1 sequence (P51679 1-360): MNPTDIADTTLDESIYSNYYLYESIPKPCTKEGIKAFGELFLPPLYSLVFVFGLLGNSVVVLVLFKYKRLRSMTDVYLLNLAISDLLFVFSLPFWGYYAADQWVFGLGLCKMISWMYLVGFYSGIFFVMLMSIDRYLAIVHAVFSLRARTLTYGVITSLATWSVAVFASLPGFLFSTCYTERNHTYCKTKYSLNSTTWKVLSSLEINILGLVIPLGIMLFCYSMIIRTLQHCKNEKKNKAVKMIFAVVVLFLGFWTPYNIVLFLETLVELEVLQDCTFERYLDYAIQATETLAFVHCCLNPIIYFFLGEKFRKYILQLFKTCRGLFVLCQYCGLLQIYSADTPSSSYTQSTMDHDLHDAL
Procedure: 1-1: Isolation of Human CCR4 Gene
Human bone marrow cell cDNA was prepared using Marathon cDNA amplification kit (manufactured by Clontech). PCR primers hCCR4XbaI-F1 (SEQ ID NO:1) and hCCR4XbaI-R1 (SEQ ID NO:2) were designed based on the sequence of GenBankX85740.
Using the human bone marrow cell cDNA as the template and using Ex Taq (manufactured by Takara), a PCR reaction (2 minutes at 95° C.→[30 seconds at 95° C., 45 seconds at 60° C., 1 minute at 72° C.]×35 times) was carried out. The thus amplified PCR product was subjected to 1% agarose gel electrophoresis, purified using QIAquick Gel Extraction Kit (manufactured by QUIAGEN) and then digested with a restriction enzyme Xbal. […]
The thus established human CCR4 stably overexpressing CHO cell (CCR4/CHO cell) was suspended in Ham's F-12 medium and FBS (10%) and dispensed into a 96-well plate at 3.0×10^4 cells/well. […] Transient increase in the intracellular Ca^2+ concentration induced by the human MDC was measured using a Ca^2+ detector for 96-well (manufactured by Hamamatsu Photonics), and inhibition ratio (%) of the test compound was calculated by the following equation: Inhibition ratio=[(Ec−Ea)/Ec]×100 • Ec: measured value of Ca^2+ transient increase by MDC; and • Ea: measured value of Ca^2+ transient increase by MDC when a test compound was added […]

TNFα = assay: Mouse TNFα production model by LPS stimulation; type: in vivo; conditions: mouse C57BL/6, oral, dose of 100 mg/kg, LPS 60 mg/kg i.p.
Procedure: 5-1: Mouse TNFα Production Model by LPS Stimulation
The present compound suspended in a medium, was orally applied to a mouse (male, C57BL/6), and after 0.5 hour, lipipolysaccharide (LPS, 055:B5, Sigma) was peritoneally administered to the mouse at a dose of 60 mg/kg. To the control groups was orally applied only the medium. Sixty minutes after LPS treatment, heparin-added blood collection was conducted from the abdominal vena cava under ether anesthesia, and centrifuged (12,000 r.p.m.) at 4° C. for 3 minutes, to give the plasma. The thus obtained plasma sample was stored at −80° C. before use. TNFα in the plasma was quantified using an ELISA kit (R&D systems).

CCRF-CEM cell = assay: Inhibition of MDC-induced T cell strain (CCRF-CEM cell) migration; type: cell-based; conditions: 4 hours
Procedure: Biological Example 2: Activity on cell migration stimulated by MDC 2-1: Inhibition tests on MDC-induced T cell strain (CCRF-CEM cell) migration A medium (0.3 mL) containing or free of MDC (20 nM, manufactured by PeproTech) was added to the lower chamber of 24-transwell plate, and further a medium (0.3 mL) containing a test compound solution of 2-fold concentration (containing 0.02% dimethylsulfoxide (DMSO)) or a medium (0.3 mL) containing DMSO only was added thereto. To the upper chamber, CCRF-CEM cell suspension prepared in 1×10^6 cells/50 μl and the test compound solution of 2-fold concentration (0.05 m]L) were added. The test was initiated by superimpose the upper chamber on the lower chamber. The chambers were incubated in a carbon gas incubator (5% CO2, 95% humidity) kept at 37° C. for 4 hours, and the cells remaining in the upper chamber were sucked up and removed. Then, 0.1 ml of a buffer (phosphate-buffered saline (PBS) containing ethylenediamine tetra-acetate sodium (EDTA) (20 μM) was added thereto, and subjected- to reaction at 4° C. for 30 minutes. The transwell plate was centrifuged (1000 r.p.m.) for 5 minutes, and the incubation liquid (600 μL) in the lower chamber was collected, and the cell number was counted using Flow Cytometer (manufactured by Becton-Dickinson). […]

auricle swelling [1] = assay: Mouse DTH model (TNCB); type: in vivo; conditions: mouse Balb/c, applied to ear at a concentration of 5%, 24 hours after TNCB
Procedure: The mouse (male, Balb/c) was shaved on the abdomen with hair clippers, and to the abdomen was applied ethanol solution (100 μL) of 7% (w/v) 2,4,6-trinitrochlrobenzene (TNCB), to sensitize the mouse. Seven days after sensitization, a 1% (w/v) TNCB solution in olive oil (20 μL) was applied to the auricle of the mouse (both sides of the right ear), to conduct induction. The present compound dissolved in a medium, was applied to both sides of the right ear (20 μL) 2 hours before applying TNCB. To the control groups, was applied only the medium. Right after the administration of the compound and 24 hours after TNCB application, the thickness of the mouse auricle was measured with Dialthickness gauge (manufactured by Ozaki Seisakusho), which was used as indicator for efficacy in mouse DTH model.

[2] = system: leukocyte infiltration into the lung; assay: Mouse OVA-induced asthma model; type: in vivo; conditions: mouse C57BL/6, oral, dose of 30 mg/kg
Procedure: 3-1: Mouse OVA-Induced Asthma Model Ovalbumin (OVA, 0.2 mg/mL) and Alum (8 mg/mL) prepared in physiological saline were intraperitoneally administered (500 μL) to the mouse (male, C57BL/6) on Day 1 (test starting day) and Day 8 (1 week thereafter), to sensitize the mouse. On Days 15 to 21, the mouse was taken to an inhalation chamber (W: 240 mm×L: 240 mm×H: 120 mm), and a 2% OVA solution was sprayed with an ultrasonic wave type nebulizer (NE-U12, manufactured by Omron) for 20 minutes, to thus conduct induction. The compound of the present invention suspended in a medium, was administered orally at 30 minutes before OVA sensitization on Day 8 and at 30 minutes before OVA induction on Days 15 to 21. To the control group was administered only the medium. Three hours after OVA inhalation on Day 21, the mouse was exsanguinated, the catheter tube was inserted into the trachea, and the lung was washed with heparin-containing physiological saline (10 U/ml), to give a bronchoalveolar lavage fluid (BALF). Leukocyte number in BALF was counted using hemocyte counter (SF-3000, manufactured by Sysmex).

auricle swelling [3] = assay: Mouse dermatitis model to which hapten is continuously applied (TNCB); type: in vivo; conditions: mouse Balb/c, repeated TNCB, applied to ear at a concentration of 5%
Procedure: 4-2: Mouse Dermatitis Model to which Hapten is Applied
To the auricle (both sides of the right ear) of the mouse (male, Balb/c), 1% (w/v) TNCB solution (acetone:olive oil=4:1) (20 μL) was applied to conduct first sensitization. Seven days after sensitization, 1% (w/v) TNCB (acetone:olive oil=4:1) (20 μL) was applied to the mouse auricle, to conduct induction (Day 0). Furthermore, on Days 2, 4, 6, 8, 10, 12, 14 and 16, the same procedure as on Day 0 was repeated. The compound of the present invention was dissolved in a medium, applied to both sides of the right ear (20 μL) 2 hours before applying TNCB. To the control groups, was applied only the medium. Right after the administration of the compound and 24 hours after TNCB application, the thickness of the mouse auricle was measured with Dialthickness gauge (manufactured by Ozaki Seisakusho), which was used as indicator for efficacy in mouse dermatitis model to which hapten was continuously applied.

- IC50 (human CCR4): 16 nM
Compound: COc1ccc(COc2nc(Br)cnc2NS(=O)(=O)c2ccc(C)cc2)cc1OC [Example 1(2), 6-bromo-2-((3,4-dimethoxyphenyl)methyloxy)-3-(4-methylphenylsulfonylamino)pyrazine]

- IC50 (human CCR4): 130 nM
Compound: Cc1ccc(S(=O)(=O)Nc2ncc(Br)nc2OCc2cccnc2)cc1 [Example 1(1), 6-bromo-2-((pyridin-3-yl)methyloxy)-3-(4-methylphenylsulfonylamino)pyrazine]
- TNFα production by LPS stimulation (plasma TNFα) (TNFα): suppressed TNFα production by LPS stimulation

- IC50 (CCRF-CEM cell): 10 nM
Compound: COc1ccc(COc2nc(C)cnc2NS(=O)(=O)c2ccc(C)cc2)cc1OCCN(C)C [Example 6(1), 6-methyl-2-((3-(2-dimethylaminoethyloxy)-4-methoxyphenyl)methyloky)-3-(4-methylphenylsulfonylamino)pyrazine]
- auricle swelling (auricle swelling [1]): suppressed the auricle swelling

Compound: COc1ccc(COc2nc(Br)cnc2NS(=O)(=O)c2ccc(C)cc2)cc1OCCN(C)C [Example 1(3), 6-bromo-2-((3-(2-dimethylaminoethyloxy)-4-methoxyphenyl)methyloxy)-3-(4-methylphenylsulfonylamino)pyrazine]
- leukocyte infiltration into the lung (leukocyte number in BALF) [2]: suppressed leukocyte infiltration into the lung
- auricle swelling (auricle swelling [3]): suppressed the auricle swelling
